Experimental data published in PubChem BioAssay (NCI).
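Five concentrations, 48 hours, 96-well plates. Here, GI50 denotes the concentration required for 50% inhibition of growth. TGI: concentration producing complete growth inhibition.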

Assays:
Assay in all cases: NCI anticancer screen, dose series, 48 h
COLO 205 colon = tested on: COLO 205 colon
NCI-H226 lung = tested on: NCI-H226 lung
UO-31 renal = tested on: UO-31 renal
LOX IMVI melanoma = tested on: LOX IMVI melanoma
HOP-92 NSCLC = tested on: HOP-92 NSCLC
A498 renal = tested on: A498 renal
OVCAR-4 ovarian = tested on: OVCAR-4 ovarian
PC-3 prostate = tested on: PC-3 prostate
HCC-2998 colon = tested on: HCC-2998 colon
SF-295 CNS = tested on: SF-295 CNS
SK-MEL-2 melanoma = tested on: SK-MEL-2 melanoma
SF-539 CNS = tested on: SF-539 CNS
HT29 colon = tested on: HT29 colon
MALME-3M melanoma = tested on: MALME-3M melanoma
SNB-19 CNS = tested on: SNB-19 CNS
CCRF-CEM leukemia = tested on: CCRF-CEM leukemia
NCI-H23 lung = tested on: NCI-H23 lung
MDA-MB-435 = tested on: MDA-MB-435
SW-620 colon = tested on: SW-620 colon
RPMI-8226 leukemia = tested on: RPMI-8226 leukemia
HOP-62 NSCLC = tested on: HOP-62 NSCLC
K-562 leukemia = tested on: K-562 leukemia
SF-268 CNS = tested on: SF-268 CNS
RXF 393 renal = tested on: RXF 393 renal
UACC-257 melanoma = tested on: UACC-257 melanoma
CAKI-1 renal = tested on: CAKI-1 renal
OVCAR-8 ovarian = tested on: OVCAR-8 ovarian
T-47D breast = tested on: T-47D breast
M14 melanoma = tested on: M14 melanoma
MOLT-4 leukemia = tested on: MOLT-4 leukemia
786-0 renal = tested on: 786-0 renal
ACHN renal = tested on: ACHN renal
OVCAR-5 ovarian = tested on: OVCAR-5 ovarian
TK-10 renal = tested on: TK-10 renal
BT-549 breast = tested on: BT-549 breast
KM12 colon = tested on: KM12 colon
NCI-H460 lung = tested on: NCI-H460 lung
U251 CNS = tested on: U251 CNS
SK-MEL-28 melanoma = tested on: SK-MEL-28 melanoma
SK-OV-3 ovarian = tested on: SK-OV-3 ovarian
UACC-62 melanoma = tested on: UACC-62 melanoma
SK-MEL-5 melanoma = tested on: SK-MEL-5 melanoma
HS 578T breast = tested on: HS 578T breast
MDA-MB-231 breast = tested on: MDA-MB-231 breast
DU-145 prostate = tested on: DU-145 prostate
SNB-75 CNS = tested on: SNB-75 CNS
A549 NSCLC = tested on: A549 NSCLC
HL-60(TB) leukemia = tested on: HL-60(TB) leukemia
MCF7 breast = tested on: MCF7 breast
HCT-15 colon = tested on: HCT-15 colon
SN12C renal = tested on: SN12C renal
SR leukemia = tested on: SR leukemia
HCT-116 colon = tested on: HCT-116 colon
OVCAR-3 ovarian = tested on: OVCAR-3 ovarian
IGROV1 ovarian = tested on: IGROV1 ovarian
NCI-H522 lung = tested on: NCI-H522 lung
EKVX NSCLC = tested on: EKVX NSCLC

Nc1[nH]c(=O)ncc1CO
GI50 (COLO 205 colon): > 100 µM
TGI (COLO 205 colon): > 100 µM
GI50 (NCI-H226 lung): > 100 µM
TGI (NCI-H226 lung): > 100 µM
GI50 (UO-31 renal): > 100 µM
TGI (UO-31 renal): > 100 µM
GI50 (LOX IMVI melanoma): > 100 µM
TGI (LOX IMVI melanoma): > 100 µM
GI50 (HOP-92 NSCLC): > 100 µM
TGI (HOP-92 NSCLC): > 100 µM
GI50 (A498 renal): > 100 µM
TGI (A498 renal): > 100 µM
GI50 (OVCAR-4 ovarian): > 100 µM
TGI (OVCAR-4 ovarian): > 100 µM
GI50 (PC-3 prostate): > 100 µM
TGI (PC-3 prostate): > 100 µM
GI50 (HCC-2998 colon): > 100 µM
TGI (HCC-2998 colon): > 100 µM
GI50 (SF-295 CNS): > 100 µM
TGI (SF-295 CNS): > 100 µM
GI50 (SK-MEL-2 melanoma): > 100 µM
TGI (SK-MEL-2 melanoma): > 100 µM
GI50 (SF-539 CNS): > 100 µM
TGI (SF-539 CNS): > 100 µM
GI50 (HT29 colon): > 100 µM
TGI (HT29 colon): > 100 µM
GI50 (MALME-3M melanoma): > 100 µM
TGI (MALME-3M melanoma): > 100 µM
GI50 (SNB-19 CNS): > 100 µM
TGI (SNB-19 CNS): > 100 µM
GI50 (CCRF-CEM leukemia): > 100 µM
TGI (CCRF-CEM leukemia): > 100 µM
GI50 (NCI-H23 lung): > 100 µM
TGI (NCI-H23 lung): > 100 µM
GI50 (MDA-MB-435): > 100 µM
TGI (MDA-MB-435): > 100 µM
GI50 (SW-620 colon): > 100 µM
TGI (SW-620 colon): > 100 µM
GI50 (RPMI-8226 leukemia): > 100 µM
TGI (RPMI-8226 leukemia): > 100 µM
GI50 (HOP-62 NSCLC): > 100 µM
TGI (HOP-62 NSCLC): > 100 µM
GI50 (K-562 leukemia): > 100 µM
TGI (K-562 leukemia): > 100 µM
GI50 (SF-268 CNS): > 100 µM
TGI (SF-268 CNS): > 100 µM
GI50 (RXF 393 renal): > 100 µM
TGI (RXF 393 renal): > 100 µM
GI50 (UACC-257 melanoma): > 100 µM
TGI (UACC-257 melanoma): > 100 µM
GI50 (CAKI-1 renal): > 100 µM
TGI (CAKI-1 renal): > 100 µM
GI50 (OVCAR-8 ovarian): > 100 µM
TGI (OVCAR-8 ovarian): > 100 µM
GI50 (T-47D breast): > 100 µM
TGI (T-47D breast): > 100 µM
GI50 (M14 melanoma): > 100 µM
TGI (M14 melanoma): > 100 µM
GI50 (MOLT-4 leukemia): > 100 µM
TGI (MOLT-4 leukemia): > 100 µM
GI50 (786-0 renal): > 100 µM
TGI (786-0 renal): > 100 µM
GI50 (ACHN renal): > 100 µM
TGI (ACHN renal): > 100 µM
GI50 (OVCAR-5 ovarian): > 100 µM
TGI (OVCAR-5 ovarian): > 100 µM
GI50 (TK-10 renal): > 100 µM
TGI (TK-10 renal): > 100 µM
GI50 (BT-549 breast): > 100 µM
TGI (BT-549 breast): > 100 µM
GI50 (KM12 colon): > 100 µM
TGI (KM12 colon): > 100 µM
GI50 (NCI-H460 lung): > 100 µM
TGI (NCI-H460 lung): > 100 µM
GI50 (U251 CNS): > 100 µM
TGI (U251 CNS): > 100 µM
GI50 (SK-MEL-28 melanoma): > 100 µM
TGI (SK-MEL-28 melanoma): > 100 µM
GI50 (SK-OV-3 ovarian): > 100 µM
TGI (SK-OV-3 ovarian): > 100 µM
GI50 (UACC-62 melanoma): > 100 µM
TGI (UACC-62 melanoma): > 100 µM
GI50 (SK-MEL-5 melanoma): > 100 µM
TGI (SK-MEL-5 melanoma): > 100 µM
GI50 (HS 578T breast): > 100 µM
TGI (HS 578T breast): > 100 µM
GI50 (MDA-MB-231 breast): > 100 µM
TGI (MDA-MB-231 breast): > 100 µM
GI50 (DU-145 prostate): > 100 µM
TGI (DU-145 prostate): > 100 µM
GI50 (SNB-75 CNS): > 100 µM
TGI (SNB-75 CNS): > 100 µM
GI50 (A549 NSCLC): > 100 µM
TGI (A549 NSCLC): > 100 µM
GI50 (HL-60(TB) leukemia): > 100 µM
TGI (HL-60(TB) leukemia): > 100 µM
GI50 (MCF7 breast): > 100 µM
TGI (MCF7 breast): > 100 µM
GI50 (HCT-15 colon): > 100 µM
TGI (HCT-15 colon): > 100 µM
GI50 (SN12C renal): > 100 µM
TGI (SN12C renal): > 100 µM
GI50 (SR leukemia): > 100 µM
TGI (SR leukemia): > 100 µM
GI50 (HCT-116 colon): > 100 µM
TGI (HCT-116 colon): > 100 µM
GI50 (OVCAR-3 ovarian): > 100 µM
TGI (OVCAR-3 ovarian): > 100 µM
GI50 (IGROV1 ovarian): > 100 µM
TGI (IGROV1 ovarian): > 100 µM
GI50 (NCI-H522 lung): > 100 µM
TGI (NCI-H522 lung): > 100 µM

COc1ccccc1CNCCCCCCCCCCCCN1C(=O)c2ccc3c4c(ccc(c24)C1=O)C(=O)N(CCCCCCCCCCCCNCc1ccccc1OC)C3=O
GI50 (COLO 205 colon): > 50 µM
TGI (COLO 205 colon): > 50 µM
GI50 (NCI-H226 lung): > 50 µM
TGI (NCI-H226 lung): > 50 µM
GI50 (A498 renal): 0.806 µM
TGI (A498 renal): 1.8 µM
GI50 (OVCAR-4 ovarian): > 50 µM
TGI (OVCAR-4 ovarian): > 50 µM
GI50 (PC-3 prostate): > 5 µM
TGI (PC-3 prostate): > 5 µM
GI50 (HCC-2998 colon): > 50 µM
TGI (HCC-2998 colon): > 50 µM
GI50 (SF-295 CNS): 2.24 µM
TGI (SF-295 CNS): > 50 µM
GI50 (SK-MEL-2 melanoma): 1.99 µM
TGI (SK-MEL-2 melanoma): > 50 µM
GI50 (HT29 colon): 2.01 µM
TGI (HT29 colon): > 50 µM
GI50 (MALME-3M melanoma): > 50 µM
TGI (MALME-3M melanoma): > 50 µM
GI50 (SNB-19 CNS): > 50 µM
TGI (SNB-19 CNS): > 50 µM
GI50 (SW-620 colon): > 50 µM
TGI (SW-620 colon): > 50 µM
GI50 (HOP-62 NSCLC): 3.64 µM
TGI (HOP-62 NSCLC): > 50 µM
GI50 (SF-268 CNS): > 50 µM
TGI (SF-268 CNS): > 50 µM
GI50 (RXF 393 renal): 0.922 µM
TGI (RXF 393 renal): 2.11 µM
GI50 (UACC-257 melanoma): > 5 µM
TGI (UACC-257 melanoma): > 5 µM
GI50 (CAKI-1 renal): > 50 µM
TGI (CAKI-1 renal): > 50 µM
GI50 (OVCAR-8 ovarian): 0.908 µM
TGI (OVCAR-8 ovarian): 1.94 µM
GI50 (T-47D breast): > 50 µM
TGI (T-47D breast): > 50 µM
GI50 (MOLT-4 leukemia): > 50 µM
TGI (MOLT-4 leukemia): > 50 µM
GI50 (ACHN renal): > 50 µM
TGI (ACHN renal): > 50 µM
GI50 (OVCAR-5 ovarian): > 50 µM
TGI (OVCAR-5 ovarian): > 50 µM
GI50 (TK-10 renal): 0.795 µM
TGI (TK-10 renal): 1.47 µM
GI50 (BT-549 breast): 7.74 µM
TGI (BT-549 breast): 20.2 µM
GI50 (EKVX NSCLC): > 50 µM
TGI (EKVX NSCLC): > 50 µM
GI50 (SK-MEL-28 melanoma): > 50 µM
TGI (SK-MEL-28 melanoma): > 50 µM
GI50 (SK-OV-3 ovarian): > 50 µM
TGI (SK-OV-3 ovarian): > 50 µM
GI50 (UACC-62 melanoma): > 50 µM
TGI (UACC-62 melanoma): > 50 µM
GI50 (SK-MEL-5 melanoma): 48.9 µM
TGI (SK-MEL-5 melanoma): > 50 µM
GI50 (MDA-MB-231 breast): > 50 µM
TGI (MDA-MB-231 breast): > 50 µM
GI50 (DU-145 prostate): 2.91 µM
TGI (DU-145 prostate): > 50 µM
GI50 (SNB-75 CNS): 2 µM
TGI (SNB-75 CNS): 46.9 µM
GI50 (A549 NSCLC): > 5 µM
TGI (A549 NSCLC): > 5 µM
GI50 (HL-60(TB) leukemia): > 50 µM
TGI (HL-60(TB) leukemia): > 50 µM
GI50 (HCT-15 colon): > 50 µM
TGI (HCT-15 colon): > 50 µM
GI50 (SN12C renal): > 50 µM
TGI (SN12C renal): > 50 µM
GI50 (IGROV1 ovarian): > 50 µM
TGI (IGROV1 ovarian): > 50 µM
GI50 (NCI-H522 lung): > 50 µM
TGI (NCI-H522 lung): > 50 µM
